Structures are written as SMILES.

For the molecule `O=C1CNC(c2ccccc2Cl)c2c(sc3c2CCNC3)N1CCc1ccccc1` (stereo not drawn) [Example 13, 5-(2-chlorophenyl)-1,3,4,5,6,7,8,9-octahydro-1-(2-phenylethyl)-2H-pyrido[4′,3′:4,5]thieno[2,3-e]-1,4-diazepine-2-one], the melting point is 128 to 130 °C. With `COc1ccc(NC(=S)N2CCc3c(sc4c3C(c3ccccc3Cl)=NCC(=S)N4CCc3ccccc3)C2)c([N+](=O)[O-])c1` the figure was 152 °C; with `COc1ccc(NC(=S)N2CCc3c(sc4c3C(c3ccccc3Cl)=NC(OC(=O)CCCCCCN)C(=O)N4CCc3ccccc3)C2)c([N+](=O)[O-])c1` (stereo not drawn) [Example 8, 3-(7-amino-1-oxo-heptyloxy)-5-(2-chlorophenyl)-1,2,3,6,7,9-hexahydro-N-(4-methoxy-2-nitrophenyl)-2-oxo-1-(2-phenylethyl)-8H-pyrido[4′,3′:4,5]thieno[2,3-e]-1,4-diazepine-8-carbothioamide], 90 to 95 °C.

Values taken from US6777408B1, “Pyrido-thieno-diazepines method for the production thereof and pharmaceutical compositions containing said pyrido-thieno-diazepines” (Societe de Conseils de Recherches et d'Applications …, priority 1999, dated 2004).
